From ChEMBL document CHEMBL1201862, “PubChem BioAssay data set” (2004)
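Where inhibition never reached the appropriate level, the endpoint shown equals the highest concentration tested. Otherwise, values were interpolated linearly from a five-concentration, 48-hour dose response in 96-well plates. GI50 marks 50% less growth.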 The source made the active and inactive calls. Cut-off read from the data, not from the text of the source: active = GI50 up to about 1.1 µM and inactive = higher. Starred links: 1 amine or outer side, 2 acyl side, 3 side chain; linkers in the order of their positions; H or OH if unused. Positions of bridges follow the written chain, without caps; N, C: chain ends. Non-standard residues stand in square brackets, D forms with d. Square brackets hold non-standard residues; d marks the D form. Residues, ends and D or L forms follow the SMILES beside them. Chains are numbered I, II in the order given. Peptide text beside a SMILES is read from it. * marks the point of attachment. Actinocin(1to9) = Cc1c2oc3c(C)ccc(C(=O)[*:2])c3nc-2c(C(=O)[*:1])c(N)c1=O; X26 = COC1=CC(=O)N(C(=O)[C@@H](O*)C(C)C)[C@H]1Cc1ccccc1; aThr = C[C@H](O)[C@H](N)C(=O)O; NMeL = CN[C@@H](CC(C)C)C(=O)O; NMeV = CN[C@H](C(=O)O)C(C)C; Hexanoyl = CCCCCC(=O)*; Sar = CNCC(=O)O

Tests used:
Assay in all cases: DTP human tumour cell line panel, 48 h
MDA-MB-435 = system: MDA-MB-435
OVCAR-4 = system: OVCAR-4
U-251 = system: U-251
SK-MEL-2 = system: SK-MEL-2
A498 = system: A498
COLO 205 = system: COLO 205
ACHN = system: ACHN
TK-10 = system: TK-10
OVCAR-8 = system: OVCAR-8
Hs-578T = system: Hs-578T
KM12 = system: KM12
MOLT-4 = system: MOLT-4
RPMI-8226 = system: RPMI-8226
IGROV-1 = system: IGROV-1
SK-MEL-28 = system: SK-MEL-28
CAKI-1 = system: CAKI-1
HCT-15 = system: HCT-15
SNB-75 = system: SNB-75
UACC-62 = system: UACC-62
OVCAR-3 = system: OVCAR-3

| SMILES | GI50 (MDA-MB-435) | GI50 (OVCAR-4) | GI50 (U-251) | GI50 (SK-MEL-2) | GI50 (A498) | GI50 (COLO 205) | GI50 (ACHN) | GI50 (TK-10) | GI50 (OVCAR-8) | GI50 (Hs-578T) | GI50 (KM12) | GI50 (MOLT-4) | GI50 (RPMI-8226) | GI50 (IGROV-1) | GI50 (SK-MEL-28) | GI50 (CAKI-1) | GI50 (HCT-15) | GI50 (SNB-75) | GI50 (UACC-62) | GI50 (OVCAR-3) |
| --- | --- | --- | --- | --- | --- | --- | --- | --- | --- | --- | --- | --- | --- | --- | --- | --- | --- | --- | --- | --- |
| O=C(Nc1ccc([N+](=O)[O-])cc1)Nn1cnnc1 | 44.9 µM (inactive) | 14.3 µM (inactive) | 27.5 µM (inactive) | > 100 µM (inactive) | 34.1 µM (inactive) | > 100 µM (inactive) | > 100 µM (inactive) | 42.5 µM (inactive) | 27.3 µM (inactive) | 26.1 µM (inactive) | 26.1 µM (inactive) | > 100 µM (inactive) | 49.7 µM (inactive) | 80 µM (inactive) | > 100 µM (inactive) | > 100 µM (inactive) | 45.6 µM | > 100 µM (inactive) | 46.3 µM (inactive) | 12.2 µM (inactive) |
| COc1ccc(-c2cc(-c3ccccc3)n(C3OCC(OC(C)=O)C(OC(C)=O)C3OC(C)=O)c(=S)c2C#N)cc1 (stereo not given) | > 100 µM (inactive) | > 100 µM (inactive) | > 100 µM (inactive) | 25 µM (inactive) | 72.9 µM (inactive) | > 100 µM (inactive) | 37.4 µM (inactive) | 63 µM (inactive) | > 100 µM (inactive) | 15.3 µM (inactive) | 85.3 µM (inactive) | > 100 µM (inactive) | > 100 µM (inactive) | > 100 µM (inactive) | > 100 µM (inactive) | 67.5 µM (inactive) | > 100 µM | > 100 µM (inactive) | 53 µM (inactive) | > 100 µM (inactive) |
| COC(=O)C(C)(/N=C/c1ccccc1)c1ccccc1 (stereo not given) | > 100 µM (inactive) | > 100 µM (inactive) | > 100 µM (inactive) | > 100 µM (inactive) | > 100 µM (inactive) | > 100 µM (inactive) | > 100 µM (inactive) | > 100 µM (inactive) | > 100 µM (inactive) | > 100 µM (inactive) | > 100 µM (inactive) | > 100 µM (inactive) | > 100 µM (inactive) | > 100 µM (inactive) | > 100 µM (inactive) | > 100 µM (inactive) | > 100 µM | > 100 µM (inactive) | > 100 µM (inactive) | > 100 µM (inactive) |
| CC(=O)OC(CC(C)C)P1(=O)N(CC(C)(C)C)[C@@H]2CCCC[C@H]2N1CC(C)(C)C (stereo not given in full) | 12.3 µM (inactive) | 9.42 µM (inactive) | 7.08 µM (inactive) | 7.6 µM (inactive) | 7.06 µM (inactive) | 6 µM (inactive) | 7.28 µM (inactive) | 11.7 µM (inactive) | 8.2 µM (inactive) | 9.75 µM (inactive) | 9.66 µM (inactive) | 9.62 µM (inactive) | 4.01 µM (inactive) | 11.7 µM (inactive) | 14.2 µM (inactive) | 12.7 µM (inactive) | 9.82 µM | 7.55 µM (inactive) | 10.1 µM (inactive) | 9.23 µM (inactive) |
| COc1ccc(-c2nc(N)n(C)c2SSc2c(-c3ccc(OC)cc3)nc(N)n2C)cc1 | 3.92 µM (inactive) | 6.59 µM (inactive) | 13 µM (inactive) | 15.6 µM (inactive) | 7.64 µM (inactive) | 2.19 µM (inactive) | 3.94 µM (inactive) | 14.5 µM (inactive) | 5.81 µM (inactive) | 9.16 µM (inactive) | 12.9 µM (inactive) | 2.13 µM (inactive) | 2.69 µM (inactive) | 14.3 µM (inactive) | 3.61 µM (inactive) | 10.1 µM (inactive) | 3.04 µM | 3.34 µM (inactive) | 3.81 µM (inactive) | 7.23 µM (inactive) |
| CCCCCC(=O)N[C@H](C(=O)N[C@H](C(=O)N(C)[C@@H](CC(C)C)C(=O)N1CCC[C@H]1C(=O)N1CCC[C@H]1C(=O)O[C@H](C(=O)N1C(=O)C=C(OC)[C@@H]1Cc1ccccc1)C(C)C)C(C)C)C(C)C (Hexanoyl-VV[NMeL]PP-X26) | 47.9 µM (inactive) | > 76.9 µM (inactive) | > 91.6 µM (inactive) | > 100 µM (inactive) | 51.5 µM (inactive) | 32.5 µM (inactive) | > 100 µM (inactive) | > 100 µM (inactive) | > 100 µM (inactive) | > 88.3 µM (inactive) | > 74.3 µM (inactive) | 1.9 µM (inactive) | 2.74 µM (inactive) | > 44.2 µM (inactive) | > 100 µM (inactive) | 74.6 µM (inactive) | > 43.4 µM | 19.5 µM (inactive) | > 100 µM (inactive) | > 100 µM (inactive) |
| Cc1c2oc3c(C)ccc(C(=O)N[C@@H]4C(=O)N[C@H](C(C)C)C(=O)N5CCC[C@H]5C(=O)N(C)CC(=O)N(C)[C@@H](C(C)C)C(=O)O[C@H]4C)c3nc-2c(C(=O)N[C@@H]2C(=O)N[C@H](C(C)C)C(=O)N3CCC[C@H]3C(=O)N(C)CC(=O)N(C)[C@@H](C(C)C)C(=O)O[C@H]2C)c(N)c1=O (I: [aThr][dV]P[Sar][NMeV] / II: [aThr][dV]P[Sar][NMeV]; ester I:1-I:C, II:1-II:C; linker I:N-II:N via Actinocin(1to9)) | 0.000871 µM (active) | 0.00583 µM (active) | 0.000611 µM (active) | 0.00106 µM (active) | 0.00299 µM (active) | 0.00106 µM (active) | 0.00371 µM (active) | 0.0149 µM (active) | 0.00165 µM (active) | 0.00187 µM (active) | 0.00128 µM (active) | 0.00048 µM (active) | 0.00061 µM (active) | 0.00217 µM (active) | 0.00139 µM (active) | 0.00484 µM (active) | 0.02 µM | 0.0023 µM (active) | 0.000935 µM (active) | 0.00361 µM (active) |
| CC(C)=CCC[C@@H](C)C1=CC(=O)C(C)=C(O)C1=O [ISOPEREZONE] | 4.31 µM (inactive) | 7.1 µM (inactive) | 8.79 µM (inactive) | 9.64 µM (inactive) | 17 µM (inactive) | 10.2 µM (inactive) | 3.85 µM (inactive) | 5.11 µM (inactive) | 2.15 µM (inactive) | 6.43 µM (inactive) | 5.09 µM (inactive) | 1.71 µM (inactive) | 0.445 µM (active) | 9.2 µM (inactive) | 11 µM (inactive) | 4.95 µM (inactive) | 2.66 µM | 4.5 µM (inactive) | 9.33 µM (inactive) | 4.19 µM (inactive) |
